{"source": "patent US9403855B2", "about": "(priority 2010, dated 2016)", "key": {"[1]": {"target": "T1, H274Y neuraminidase mutant from A/WSN/1933 (H1N1) (Influenza A virus, UniProt P03470, H259Y)", "assay": "biochemical", "parameters": "species or system Influenza virus A/WSN/1933 (H1N1) H274Y mutant"}, "[2]": {"target": "T1, H274Y neuraminidase mutant from A/WSN/1933 (H1N1)", "assay": "cell-based", "parameters": "species or system Influenza virus A/WSN/1933 (H1N1) H274Y mutant"}}}
{"smiles": "CC(=O)N[C@H]1[C@H]([C@H](O)[C@H](O)CO)OC(P(=O)(O)O)=C[C@@H]1N", "note": "[1a, (5-Acetamido-4-amino-6-(1,2,3-hydroxy)propyl-4,5,6-trihydropyran-2-yl) phosphonic acid]", "values": [{"measurement": "IC50", "setting": "[1]", "value": 0.5, "unit": "nM"}, {"measurement": "EC50", "setting": "[2]", "value": 27, "unit": "nM"}]}
{"smiles": "CC(=O)N[C@H]1[C@H]([C@H](O)[C@H](O)CO)OC(P(=O)(O)O)=C[C@@H]1NC(=N)N", "note": "[1b, (5-Acetamido-4-guanidino-6-(1,2,3-hydroxy)propyl-4,5,6-trihydropyran-2-yl) phosphonic acid]", "values": [{"measurement": "IC50", "setting": "[1]", "value": 0.25, "unit": "nM"}, {"measurement": "EC50", "setting": "[2]", "value": 26, "unit": "nM"}]}
